Among the data in PMC10824666 (Nature Cancer, 2023) are remaining activity values, retold here.

Experiment in all cases: biochemical
Parameters in all cases: Eurofins DiscoverX kinase panel, competitive binding assay at 1 uM, percent of DMSO control
Common to all, as to conditions: competitive binding, percent of DMSO control

One assay has as its target T1, TIE2 (Homo sapiens, UniProt Q02763).
T1 construct: gene TEK
Put shortly:
(§1)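 Single-point profiling at 1 µM compound in a competition-binding format against 96 kinases, read out as POC relative to control; n = 1.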

Another assay deals with OXSR1 (Homo sapiens, UniProt O95747). Put shortly:
as §1

The next assay addresses T2, MLTK (Homo sapiens, UniProt Q9NYL2).
T2 construct: gene MAP3K20
Put shortly:
as §1

The target in the next assay is T3, IGF-1R (Homo sapiens, UniProt P08069).
T3 construct: gene IGF1R
Put shortly:
as §1

The target of another assay is NEK4 (Homo sapiens, UniProt P51957). Put shortly: as §1
Another assay concerns the target Syk (Homo sapiens, UniProt P43405). Put shortly: as §1
The next assay has as its target TNIK (Homo sapiens, UniProt Q9UKE5). Put shortly: as §1
For another assay, the target named is JAK2 (Homo sapiens, UniProt O60674). The method, boiled down:
as §1

A further assay addresses DYRK1a (Homo sapiens, UniProt Q13627). The method, boiled down: as §1
For a further assay, the target named is LCK (Homo sapiens, UniProt P06239). The method, boiled down: as §1
The target of a further assay is CDK2 (Homo sapiens, UniProt P24941). The method, boiled down: as §1
The target of a further assay is BMPR1A (Homo sapiens, UniProt P36894). Put shortly:
as §1

Another assay deals with LIMK1 (Homo sapiens, UniProt P53667). Put shortly: as §1
In a further assay the target is mTOR (Homo sapiens, UniProt P42345). Put shortly:
as §1

The mark [1] stands for this setting: read-out: Kinome Profiling performed by Eurofins DiscoverX / AM-0277, 1.0 µM / POC.
The mark [2] stands for this setting: read-out: Kinome Profiling performed by Eurofins DiscoverX / AM-1882, 1.0 µM / POC.
The mark [3] stands for this setting: read-out: Kinome Profiling performed by Eurofins DiscoverX / AM-5308, 1.0 µM / POC.

Like-named read-outs stand apart in the source and are kept apart here.

OXSR1, sequence (O95747 whole entry): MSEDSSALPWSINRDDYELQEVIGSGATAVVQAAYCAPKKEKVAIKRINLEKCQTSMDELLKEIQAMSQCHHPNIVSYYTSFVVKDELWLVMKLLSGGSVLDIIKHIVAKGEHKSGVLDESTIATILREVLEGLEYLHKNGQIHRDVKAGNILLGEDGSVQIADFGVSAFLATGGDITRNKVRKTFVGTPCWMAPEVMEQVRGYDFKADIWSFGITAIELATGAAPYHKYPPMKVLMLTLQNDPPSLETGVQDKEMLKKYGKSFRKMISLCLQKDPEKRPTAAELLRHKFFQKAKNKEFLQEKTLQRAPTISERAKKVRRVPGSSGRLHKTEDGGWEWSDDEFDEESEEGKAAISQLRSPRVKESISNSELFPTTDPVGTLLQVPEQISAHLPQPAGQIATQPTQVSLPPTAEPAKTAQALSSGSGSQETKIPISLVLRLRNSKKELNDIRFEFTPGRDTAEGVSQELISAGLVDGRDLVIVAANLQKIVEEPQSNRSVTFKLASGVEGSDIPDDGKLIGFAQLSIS
LCK, sequence (P06239 whole entry): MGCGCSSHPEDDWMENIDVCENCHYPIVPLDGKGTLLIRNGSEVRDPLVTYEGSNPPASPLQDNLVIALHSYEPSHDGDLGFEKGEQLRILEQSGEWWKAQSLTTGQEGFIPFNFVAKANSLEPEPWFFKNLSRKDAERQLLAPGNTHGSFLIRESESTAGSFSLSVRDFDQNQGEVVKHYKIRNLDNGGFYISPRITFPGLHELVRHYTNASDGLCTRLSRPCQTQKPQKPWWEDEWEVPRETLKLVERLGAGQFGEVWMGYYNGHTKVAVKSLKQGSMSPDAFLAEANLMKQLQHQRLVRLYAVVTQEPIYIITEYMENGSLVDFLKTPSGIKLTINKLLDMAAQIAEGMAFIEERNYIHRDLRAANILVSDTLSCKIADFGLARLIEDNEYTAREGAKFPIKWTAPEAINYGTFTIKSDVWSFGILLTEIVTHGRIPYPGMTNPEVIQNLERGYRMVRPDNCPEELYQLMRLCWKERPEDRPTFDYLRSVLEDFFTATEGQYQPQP
T3 sequence (P08069 whole entry): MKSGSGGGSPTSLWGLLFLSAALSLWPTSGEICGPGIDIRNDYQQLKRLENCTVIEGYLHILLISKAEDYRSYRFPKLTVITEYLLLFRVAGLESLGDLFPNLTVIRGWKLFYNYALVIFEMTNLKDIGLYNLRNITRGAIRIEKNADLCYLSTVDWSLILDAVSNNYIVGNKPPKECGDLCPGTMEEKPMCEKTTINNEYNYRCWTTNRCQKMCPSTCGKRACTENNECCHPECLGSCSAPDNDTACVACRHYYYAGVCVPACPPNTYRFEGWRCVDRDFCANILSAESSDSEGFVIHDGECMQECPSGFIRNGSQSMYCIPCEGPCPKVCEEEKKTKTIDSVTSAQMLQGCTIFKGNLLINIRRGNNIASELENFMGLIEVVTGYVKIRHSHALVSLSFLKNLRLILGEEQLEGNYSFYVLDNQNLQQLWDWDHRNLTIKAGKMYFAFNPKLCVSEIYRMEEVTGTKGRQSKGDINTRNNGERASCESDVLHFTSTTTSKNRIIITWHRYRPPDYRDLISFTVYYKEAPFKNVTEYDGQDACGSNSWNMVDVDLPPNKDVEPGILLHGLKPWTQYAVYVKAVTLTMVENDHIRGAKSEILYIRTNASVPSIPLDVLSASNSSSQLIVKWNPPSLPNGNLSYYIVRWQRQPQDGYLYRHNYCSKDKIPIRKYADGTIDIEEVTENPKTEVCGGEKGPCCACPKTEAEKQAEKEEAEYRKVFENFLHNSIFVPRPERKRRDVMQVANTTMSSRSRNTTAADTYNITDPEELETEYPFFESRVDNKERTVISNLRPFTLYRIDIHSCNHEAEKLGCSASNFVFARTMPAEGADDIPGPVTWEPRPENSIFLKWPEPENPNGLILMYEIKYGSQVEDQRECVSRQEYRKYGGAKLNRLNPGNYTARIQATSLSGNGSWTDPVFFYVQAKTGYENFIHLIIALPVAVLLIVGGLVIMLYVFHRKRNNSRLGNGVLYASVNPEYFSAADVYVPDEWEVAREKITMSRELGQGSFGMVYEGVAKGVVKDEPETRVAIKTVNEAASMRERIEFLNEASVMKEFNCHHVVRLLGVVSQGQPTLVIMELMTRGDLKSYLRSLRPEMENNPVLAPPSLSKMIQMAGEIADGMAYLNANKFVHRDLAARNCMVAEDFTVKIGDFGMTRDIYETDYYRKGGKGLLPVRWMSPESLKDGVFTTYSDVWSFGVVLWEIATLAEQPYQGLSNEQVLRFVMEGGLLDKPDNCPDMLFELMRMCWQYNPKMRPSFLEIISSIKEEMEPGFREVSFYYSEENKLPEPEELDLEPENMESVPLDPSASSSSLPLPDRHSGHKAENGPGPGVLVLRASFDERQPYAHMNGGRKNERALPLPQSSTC
JAK2, sequence (O60674 whole entry): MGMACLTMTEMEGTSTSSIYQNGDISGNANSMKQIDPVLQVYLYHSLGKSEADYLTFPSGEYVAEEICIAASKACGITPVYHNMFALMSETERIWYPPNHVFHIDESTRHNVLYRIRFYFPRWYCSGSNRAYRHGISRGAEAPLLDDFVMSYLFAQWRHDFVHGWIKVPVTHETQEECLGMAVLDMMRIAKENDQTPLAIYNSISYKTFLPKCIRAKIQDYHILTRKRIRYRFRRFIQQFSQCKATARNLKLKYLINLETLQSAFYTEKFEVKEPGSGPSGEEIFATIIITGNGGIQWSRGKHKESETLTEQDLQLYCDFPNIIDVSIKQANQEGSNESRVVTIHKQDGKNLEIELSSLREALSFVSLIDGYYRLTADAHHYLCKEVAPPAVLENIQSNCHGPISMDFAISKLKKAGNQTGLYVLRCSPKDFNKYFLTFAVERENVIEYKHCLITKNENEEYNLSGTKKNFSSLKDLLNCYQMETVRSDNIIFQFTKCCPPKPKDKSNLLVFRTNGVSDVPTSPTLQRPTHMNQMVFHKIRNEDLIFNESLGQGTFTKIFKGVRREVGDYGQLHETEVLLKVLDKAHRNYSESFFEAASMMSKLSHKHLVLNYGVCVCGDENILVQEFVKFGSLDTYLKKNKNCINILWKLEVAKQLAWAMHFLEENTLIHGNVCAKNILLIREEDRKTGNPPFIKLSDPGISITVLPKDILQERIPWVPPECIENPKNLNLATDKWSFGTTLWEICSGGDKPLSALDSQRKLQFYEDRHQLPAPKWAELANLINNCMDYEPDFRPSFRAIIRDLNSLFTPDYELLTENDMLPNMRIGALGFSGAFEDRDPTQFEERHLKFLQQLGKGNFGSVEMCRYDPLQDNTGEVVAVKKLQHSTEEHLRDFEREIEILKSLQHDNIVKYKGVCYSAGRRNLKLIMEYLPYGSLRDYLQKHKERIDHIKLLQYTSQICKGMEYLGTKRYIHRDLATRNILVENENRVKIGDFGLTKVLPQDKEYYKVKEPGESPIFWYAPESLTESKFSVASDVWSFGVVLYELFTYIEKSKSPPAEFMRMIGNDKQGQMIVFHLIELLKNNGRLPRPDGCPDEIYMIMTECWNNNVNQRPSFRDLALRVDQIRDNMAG
LIMK1, sequence (P53667 whole entry): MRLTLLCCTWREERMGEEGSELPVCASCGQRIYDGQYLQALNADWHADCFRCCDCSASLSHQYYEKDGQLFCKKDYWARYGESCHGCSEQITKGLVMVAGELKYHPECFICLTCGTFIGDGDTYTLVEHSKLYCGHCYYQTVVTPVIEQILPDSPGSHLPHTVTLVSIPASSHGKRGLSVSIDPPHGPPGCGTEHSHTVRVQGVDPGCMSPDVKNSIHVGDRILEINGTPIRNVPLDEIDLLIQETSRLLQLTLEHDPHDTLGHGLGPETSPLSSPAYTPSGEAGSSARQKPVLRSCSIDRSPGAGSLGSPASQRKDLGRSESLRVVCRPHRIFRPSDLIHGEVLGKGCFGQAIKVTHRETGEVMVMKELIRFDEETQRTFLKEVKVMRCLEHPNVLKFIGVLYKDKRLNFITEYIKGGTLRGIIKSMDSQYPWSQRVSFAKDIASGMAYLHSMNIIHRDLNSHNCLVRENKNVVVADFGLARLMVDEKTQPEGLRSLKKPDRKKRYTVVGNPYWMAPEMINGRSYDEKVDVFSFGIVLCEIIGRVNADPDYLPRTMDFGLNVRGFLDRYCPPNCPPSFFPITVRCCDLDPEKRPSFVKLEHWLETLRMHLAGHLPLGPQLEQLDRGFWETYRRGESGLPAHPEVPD
NEK4, sequence (P51957 whole entry): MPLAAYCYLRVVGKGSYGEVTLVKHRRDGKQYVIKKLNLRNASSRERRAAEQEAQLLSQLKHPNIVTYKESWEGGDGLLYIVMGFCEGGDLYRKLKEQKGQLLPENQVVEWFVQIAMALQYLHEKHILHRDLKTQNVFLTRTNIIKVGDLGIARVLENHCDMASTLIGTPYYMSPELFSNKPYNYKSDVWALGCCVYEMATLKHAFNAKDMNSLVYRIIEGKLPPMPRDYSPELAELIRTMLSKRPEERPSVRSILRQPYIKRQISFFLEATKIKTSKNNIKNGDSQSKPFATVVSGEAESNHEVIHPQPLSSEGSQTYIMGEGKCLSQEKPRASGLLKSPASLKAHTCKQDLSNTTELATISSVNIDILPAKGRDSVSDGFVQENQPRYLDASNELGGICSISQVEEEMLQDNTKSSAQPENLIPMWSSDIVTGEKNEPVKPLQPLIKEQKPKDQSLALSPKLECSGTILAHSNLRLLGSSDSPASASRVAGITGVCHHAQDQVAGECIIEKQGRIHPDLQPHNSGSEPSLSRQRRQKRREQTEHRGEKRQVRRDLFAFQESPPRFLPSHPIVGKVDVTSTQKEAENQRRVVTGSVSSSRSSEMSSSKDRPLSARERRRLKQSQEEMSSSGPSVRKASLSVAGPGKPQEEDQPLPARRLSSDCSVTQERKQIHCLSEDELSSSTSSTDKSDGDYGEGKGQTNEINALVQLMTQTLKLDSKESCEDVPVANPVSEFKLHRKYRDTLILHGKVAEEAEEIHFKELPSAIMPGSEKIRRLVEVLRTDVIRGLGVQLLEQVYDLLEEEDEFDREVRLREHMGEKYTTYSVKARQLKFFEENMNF

As for `CC(C)(CO)Nc1ccc(C(=O)Nc2cccc(S(=O)(=O)C3CCCC3)c2)c(N2CCC3(CC2)CC3)n1` [AM-0277], the remaining activity at 1 µM at TIE2 (setting [1]) stood at 77%; at OXSR1 (setting [1]) it was 100%; on MLTK (setting [1]) it was 90%; at IGF-1R (setting [1]), 97%; on NEK4 (setting [1]) it was 100%; at Syk (setting [1]), 100%. Also, the remaining activity at 1 µM at TNIK (setting [1]) was found to be 88%; at JAK2 (setting [1]), 100%; at DYRK1a (setting [1]) it was 100%; on LCK (setting [1]) it was 92%; on CDK2 (setting [1]) it was 97%; on BMPR1A (setting [1]) it was 100%. Also, the values for the remaining activity at 1 µM at LIMK1 (setting [1]) and on mTOR (setting [1]) were 95% and 100%, respectively.
With `CC(C)(C)NS(=O)(=O)c1cccc(NC(=O)c2ccc(S(=O)(=O)NC(C)(C)C)cc2N2CCC3(CC2)CC3)c1` [AM-1882], the remaining activity at 1 µM on TIE2 (setting [2]) was found to be 94.5%; on OXSR1 (setting [2]), 92.5%; on MLTK (setting [2]) it was 84.5%; at IGF-1R (setting [2]), 83%; on NEK4 (setting [2]) it was 89%; on Syk (setting [2]), 89.5%. In addition, the remaining activity at 1 µM at TNIK (setting [2]) came to 82%; at JAK2 (setting [2]) it was 100%; on DYRK1a (setting [2]), 81%; on LCK (setting [2]) it was 95%; at CDK2 (setting [2]), 100%; at BMPR1A (setting [2]), 100%. Besides, the remaining activity at 1 µM was 87% at LIMK1 (setting [2]) and 98.5% on mTOR (setting [2]).
As for `C[C@@H]1CN(c2cccc(NC(=O)c3ccc(NS(=O)(=O)CCO)cc3N3CCC4(CC3)CC4)n2)CCO1` [AM-5308], the remaining activity at 1 µM at TIE2 (setting [3]) was 90%; on OXSR1 (setting [3]) it was 82.5%; on MLTK (setting [3]), 100%; on IGF-1R (setting [3]), 86.5%; at NEK4 (setting [3]) it was 100%; on Syk (setting [3]) it was 79.5%. Besides, the remaining activity at 1 µM on TNIK (setting [3]) is 52.5%; at JAK2 (setting [3]), 94.5%; at DYRK1a (setting [3]), 100%; on LCK (setting [3]), 92%; at CDK2 (setting [3]) it was 94.5%; on BMPR1A (setting [3]), 93.5%. Moreover, the remaining activity at 1 µM at LIMK1 (setting [3]) was 92.5%; at mTOR (setting [3]), 100%.
